According to patent US8232278B2 (Gilead Sciences, Inc., priority 2005, dated 2012):
Like-named read-outs stand apart in the source and are kept apart here.

Columns and labels:
HCV replicon = assay: Anti-HCV assay / replicon assay (EC50, luciferase read-out); type: cell-based, hepatitis C virus (HCV); settings: for CC50/EC50: CC50/EC50 ratio (selectivity index)
Procedure, shortened: (§1)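 Huh-7 cells carrying an HCV replicon, 6000 per well, were exposed to 3-fold serial compound dilutions (0.5% DMSO final where DMSO was used) for 3 days at 37 °C. EC50 was read by luciferase after cell lysis; CC50 was taken as 50% inhibition of cell growth.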

Huh-7 HCV replicon cells = assay: CC50 assay in Huh-7 HCV replicon cells (CellTiter-Glo); type: cell-based, human; settings: 3 days, 50% cytostatic concentration
Procedure, shortened: as §1

[1] = test system: wild-type HIV-1 strain IIIB; assay: HIV-1 assay (XTT, HIV-induced cytopathic effect in MT-2 cells); type: cell-based; settings: for inhibition at 5 µM: read-out: MT2 HIV % inhib. @ 5 μM
Method: This assay is based on the quantification of the HIV-induced cytopathic effect by a calorimetric detection of the viability of virus-infected cells in the presence or absence of tested inhibitors. The HIV-induced cell death was determined by using as a metabolic substrate 2,3-bis(2-methoxy-4-nitro-5-sulfophenyl)-2H-tetrazolium-5-carboxanilide (hereinafter referred as XTT) which was converted only by live cells into a product with specific absorption characteristics, as described by Weislow et al., J. Natl. Cancer Inst. (1989) 81:577.
The assay protocol for the determination of EC50 includes the following steps: • 1. MT-2 cells were maintained in RPMI-1640 medium supplemented with 10% fetal bovine serum, glutamine and antibiotics. • 2. Cells were infected by the wild-type HIV-1 strain IIIB (ABI, Columbia, Md.) for 3 hours at 37° C. using a multiplicity of infection (MOI) of 0.01. • 3. Prepare a set of solutions containing various concentrations of the tested inhibitor by making 5-fold serial dilutions in 96-well plate (100 μl/well). Alternatively, test single drug concentration (100 μl/well). Distribute the infected cells into the 96-well plate containing the inhibitors (20,000 cells in 100 μl/well). Include the following control samples, untreated infected cells (100% cell death) and control drug-treated infected cells (full protection). • 4. Incubate the cells for 5 days at 37° C. • 5. Prepare XTT solution (6 mL per assay plate) at a concentration of 2 mg/mL in a phosphate-buffered saline at pH 7.4. Heat the solution in water-bath for 10 minutes at 56° C. Add 50 μl of N-methylphenazonium methasulfate (5 μg/mL) per 6 mL of XTT solution. • 6. Remove 100 μl media from each well on the assay plate. • 7. Add 100 μl of the XTT substrate solution per well and incubate at 37° C. for 45 to 60 minutes in a CO2 incubator. • 8. Add 20 μl of 2% Triton X-100 per well to inactivate the virus. • 9. Read the absorbance at 450 nm with subtracting off the background absorbance at 650 nm. • 10. Plot the percentage absorbance relative to untreated control and estimate the EC50 value as drug concentration resulting in a 50% protection of the infected cells. Alternatively, calculate the percentage of inhibition for a fixed concentration, relative to the full protection with the control drug.
This assay has been performed on a set of compounds of the invention, and results are reported in table 8 below, also indicating the nature of substituents being present in positions 4 and 6 of the pyrido[3,2-d]pyrimidine derivatives of the invention (all being amino-substituted in position 2).

[2] = CC50 assay in Huh-7 HCV replicon cells (CellTiter-Glo); type: cell-based, human; settings: human, 50% cytostatic concentration
Procedure, shortened: as §1

[3] = Human immunodeficiency virus 1, MT2, 120 h, 5 μM, MT-2 cells infected with HIV-1 IIIB, 5 days, XTT
[4] = Hepatitis C virus, 72 h, human hepatoma Huh-7 cell line harbouring a HCV replicon, 3 days, luciferase luminescence, read-out: EC50

| Molecule | CC50/EC50 (HCV replicon) | inhibition at 5 µM [1, 3] | CC50 at 3 days [2] | EC50 (HCV replicon; [4]) | also measured |
| --- | --- | --- | --- | --- | --- |
| 6-(3,4-difluoro-phenyl)-4-ethoxy-pyrido[3,2-d]pyrimidin-2-ylamine [Example 460] | 145 |  |  |  | EC50 (HCV replicon; human hepatoma Huh-7 cell line harbouring a HCV replicon, 3 days, luciferase luminescence, read-out: EC50): 0.113 µM; CC50 (Huh-7 HCV replicon cells): 16.3 µM; MT2 HIV % inhib. @ 5 μM ([1]; 5 μM, MT-2 cells infected with HIV-1 IIIB, 5 days, XTT): 11% |
| COc1ccc(-c2ccc3nc(N)nc(N4CCN(C)CC4)c3n2)cc1OC [Example 36, 2-amino-4-(N-methyl-piperazino)-6-(3,4-dimethoxyphenyl)-pyrido[3,2-d]pyrimidine] |  | 3% |  |  |  |
| Nc1nc(OCc2ccccc2)c2nc(-c3cccc(F)c3)ccc2n1 [Example 210, 2-amino-4-benzyloxy-6-(m-fluorophenyl)-pyrido[3,2-d]pyrimidine] | 85 |  | 18.8 µM |  | EC50 (HCV replicon; Hepatitis C virus, Huh-7, 72 h): 0.22 µM; inhibition at 5 µM ([1]; Human immunodeficiency virus 1, IIIB, MT2, 120 h): 5% |
| Nc1nc(OCc2ccccc2)c2nc(-c3ccc(F)cc3)ccc2n1 [Example 211, 2-amino-4-benzyloxy-6-(p-fluorophenyl)-pyrido[3,2-d]pyrimidine] | 179 | 17% | 37.5 µM | 0.21 µM |  |
| Nc1nc(N2CCOCC2)c2nc(-c3ccncc3)ccc2n1 [Example 226, 2-amino-4-morpholino-6-(4-pyridinyl)-pyrido[3,2-d]pyrimidine] |  | 9% |  |  |  |
| CCOc1nc(N)nc2ccc(-c3ccc(F)cc3)nc12 [Example 281, 2-amino-4-ethoxy-6-(p-fluorophenyl)pyrido[3,2-d]-pyrimidine] | 856 | 17% |  | 0.059 µM | CC50 (Huh-7 HCV replicon cells): 50.1 µM |
| CC(C)Oc1nc(N)nc2ccc(-c3ccc(F)cc3)nc12 [Example 286, 2-amino-4-isopropoxy-6-(p-fluorophenyl)-pyrido[3,2-d]pyrimidine] | 1113 | 11% |  | 0.045 µM | CC50 (Huh-7 HCV replicon cells): 50.1 µM |
| CCOCCOc1nc(N)nc2ccc(-c3ccccc3F)nc12 [Example 302, 2-amino-4-(2-ethoxyethoxy)-6-(2-fluorophenyl)-pyrido[3,2-d]pyrimidine] |  |  |  |  | melting point: 163 °C |
| CCOCCOc1nc(N)nc2ccc(-c3cccc(F)c3)nc12 [Example 303, 2-amino-4-(2-ethoxyethoxy)-6-(3-fluorophenyl)-pyrido[3,2-d]pyrimidine] | 89 | 8% |  | 0.56 µM | CC50 (Huh-7 HCV replicon cells): 50.1 µM; melting point: 165 °C |
| CCOCCOc1nc(N)nc2ccc(-c3ccc(F)cc3)nc12 [Example 304, 2-amino-4-(2-ethoxyethoxy)-6-(4-fluorophenyl)-pyrido[3,2-d]pyrimidine] | 852 | 9% | 37.5 µM | 0.044 µM | melting point: 192 °C |
| COCCOc1nc(N)nc2ccc(-c3ccc(F)cc3)nc12 [Example 305, 2-amino-4-(2-methoxyethoxy)-6-(4-fluorophenyl)-pyrido[3,2-d]pyrimidine] | 2863 |  |  | 0.018 µM | CC50 (Huh-7 HCV replicon cells): 50.1 µM; melting point: 204 °C |
| CC(=O)N1CCN(c2nc(N)nc3ccc(-c4ccc(F)cc4)nc23)CC1 [Example 320, 2-amino-4-(N-acetylpiperazino)-6-(4-fluorophenyl)-pyrido[3,2-d]pyrimidine] | 87 | 12% | 19.9 µM | 0.23 µM |  |
| CC(=O)Nc1ccc(-c2ccc3nc(N)nc(N4CCN(C(C)=O)CC4)c3n2)cc1 [Example 340, 2-amino-4-(N-acetylpiperazino)-6-(p-acetamidophenyl)-pyrido(3,2-d)pyrimidine] |  | 4% |  |  |  |
| CCOc1nc(N)nc2ccc(-c3ccc(NC(C)=O)cc3)nc12 [Example 353, 2-amino-4-ethoxy-6-(p-acetamidophenyl)pyrido(3,2-d)pyrimidine] | 56 | 4% | 25.1 µM | 0.45 µM |  |
| Nc1nc(N2CCN(C(=O)COc3ccc(Cl)cc3Cl)CC2)c2nc(-c3ccc(F)cc3)ccc2n1 [Example 372, 2-amino-4-[4-(2,4-dichlorophenoxy-acetyl)piperazin-1-yl]-6-(4-fluorophenyl)-pyrido[3,2-d]pyrimidine] | 78 |  | 25.1 µM | 0.32 µM |  |
| Nc1nc(N2CCN(C(=O)COc3ccc(F)cc3)CC2)c2nc(-c3ccc(F)cc3)ccc2n1 [Example 373, 2-amino-4-[4-(4-fluorophenoxy-acetyl)piperazin-1-yl]-6-(4-fluorophenyl)-pyrido[3,2-d]pyrimidine] | 148 |  | 19.2 µM | 0.13 µM |  |
| COCCSc1nc(N)nc2ccc(-c3ccc(F)cc3)nc12 [Example 395] | 278 |  | 13.6 µM |  | EC50 (HCV replicon; Hepatitis C virus, Huh-7, 72 h): 0.049 µM |
| COCCNc1nc(NC(C)=O)nc2ccc(-c3ccc(F)cc3)nc12 [Example 398, 2-acetamido-4-(2-methoxy-ethylamino)-6-(4-fluorophenyl)pyrido[3,2-d]pyrimidine] | 61 |  | 25.1 µM | 0.41 µM |  |
| CCNc1nc(N)nc2ccc(-c3ccc(F)cc3)nc12 [Example 402, 2-amino-4-ethylamino-6-(4-fluorophenyl)pyrido[3,2-d]pyrimidine] | 80 |  | 30 µM | 0.376 µM |  |
| Nc1nc(OCCF)c2nc(-c3ccc(F)cc3)ccc2n1 [Example 417, 2-amino-4-(2-fluoro-ethoxy)-6-(4-fluorophenyl)pyrido[3,2-d]pyrimidine] | 2282 |  | 25.1 µM | 0.011 µM |  |
| COCCOc1nc(N)nc2ccc(-c3ccc(OC)c(OC)c3)nc12 [Example 471, 6-(3,4-dimethoxy-phenyl)-4-(2-methoxy-ethoxy)-pyrido[3,2-d]pyrimidin-2-ylamine] | 66 |  | 25.1 µM |  | EC50 (HCV replicon; Hepatitis C virus, Huh-7, 72 h): 0.38 µM |
| CC(=O)Nc1ccc(-c2ccc3nc(N)nc(N4CCOCC4)c3n2)cc1 [Example 500, N-[4-(2-amino-4-morpholin-4-yl-pyrido[3,2-d]pyrimidin-6-yl)-phenyl]-acetamide] | 735 |  | 36 µM | 0.049 µM |  |
| CC(C)C(=O)Nc1ccc(-c2ccc3nc(N)nc(N4CCOCC4)c3n2)cc1 [Example 501, N-[4-(2-amino-4-morpholin-4-yl-pyrido[3,2-d]pyrimidin-6-yl)-phenyl]-isobutyramide] | 149 |  | 7.3 µM | 0.049 µM |  |
| Nc1ccc(-c2ccc3nc(N)nc(N4CCOCC4)c3n2)cc1 [Example 502, 6-(4-amino-phenyl)-4-morpholin-4-yl-pyrido[3,2-d]pyrimidin-2-ylamine] | 82 |  | 8.1 µM |  | EC50 (HCV replicon; Hepatitis C virus, Huh-7, 72 h): 0.099 µM |
| COc1nc(N)nc2ccc(-c3ccc(F)cc3)nc12 [Example 504, 6-(4-fluoro-phenyl)-4-methoxy-pyrido[3,2-d]pyrimidin-2-ylamine] | 434 |  | 14.3 µM | 0.033 µM |  |
| CCOc1nc(N)nc2ccc(-c3ccc(OC)nc3)nc12 [Example 546] | 68 |  | 25.1 µM | 0.37 µM |  |
| CCOc1cccc(-c2ccc3nc(N)nc(OCC)c3n2)c1 [Example 549] | 53 |  | 25.1 µM | 0.47 µM |  |
